Publication PMC4521981 (Nature methods, 2015)

Experiments:
[1] = test system: MBP-SCRIB-4/4 PDZ construct; assay: Automated holdup assay, benchmark set; type: binding, human; settings: overlaid electropherograms of peptide and biotin flowthroughs
[2] = test system: MBP-SCRIB-34/4 PDZ tandem construct; assay: Automated holdup assay, benchmark set; type: binding, human; settings: overlaid electropherograms of peptide and biotin flowthroughs

Row | Sequence | binding strength in holdup [1] | binding strength in holdup [2]
1 | GSGAGHETIV [TMFLJ_05] | no binding | 
2 | GSGAGKETLV [NET1_05] |  | moderate binding
